Reference: ChEMBL document CHEMBL6177966, “Sclerotiorin-Type Azaphilones Isolated from a Marine-Derived Fungus Microsphaeropsis arundinis P1B” (J Nat Prod, 2025)
Calls of active or inactive are those of the source. The rule behind the calls is not given here.

Tests used:
RAW264.7 [1] = test: Cytotoxicity against mouse RAW264.7 cells assessed as cell viability at 20 to 40 uM incubated for 24 hrs by CCK8 assay; assay type: toxicity, cell-based; conditions: raw264.7, 24 h, dose 20-40 µM
RAW264.7 [2] = test: Anti-inflammatory activity in LPS-induced mouse RAW264.7 cells assessed as reduction in COX-2 level pre-incubated with compound for 1 hr followed by LPS induction and measured after 6 hrs by Western blot analysis; assay type: functional, cell-based; conditions: dose 5-40 µM
RAW264.7 [3] = test: Anti-inflammatory activity in LPS-induced mouse RAW264.7 cells assessed as inhibition of NO production incubated for 24 hrs by Griess reagent based microplate reader analysis; assay type: functional, cell-based; conditions: RAW264.7, 24 h
RAW264.7 [4] = test: Anti-inflammatory activity in LPS-induced mouse RAW264.7 cells assessed as downregulation of TNF-alpha mRNA transcription at 10 to 40 uM pre-incubated with compound for 1 hr followed by LPS induction and measured after 6 hrs by qRT-PCR analysis; assay type: functional, cell-based; conditions: dose 10-40 µM
RAW264.7 [5] = test: Effect on P38 phosphorylation in LPS-induced mouse RAW264.7 cells at 5 to 40 uM pre-incubated with compound for 1 hr followed by LPS induction and measured after 10 mins by Western blot analysis; assay type: functional, cell-based; conditions: dose 5-40 µM
RAW264.7 [6] = test: Anti-inflammatory activity in LPS-induced mouse RAW264.7 cells assessed as downregulation of IL-6 mRNA transcription at 10 to 40 uM pre-incubated with compound for 1 hr followed by LPS induction and measured after 6 hrs by qRT-PCR analysis; assay type: functional, cell-based; conditions: dose 10-40 µM
RAW264.7 [7] = test: Anti-inflammatory activity in LPS-induced mouse RAW264.7 cells assessed as reduction in iNOS level pre-incubated with compound for 1 hr followed by LPS induction and measured after 6 hrs by Western blot analysis; assay type: functional, cell-based; conditions: dose 5-40 µM
RAW264.7 [8] = test: Inhibition of MAPK signalling pathway in LPS-induced mouse RAW264.7 cells assessed as downregulation of ERK1/2 phosphorylation pre-incubated with compound for 1 hr followed by LPS induction and measured after 10 mins by Western blot analysis; assay type: cell-based; conditions: dose 5-40 µM
RAW264.7 [9] = test: Effect on JNK phosphorylation in LPS-induced mouse RAW264.7 cells at 5 to 40 uM pre-incubated with compound for 1 hr followed by LPS induction and measured after 10 mins by Western blot analysis; assay type: functional, cell-based; conditions: dose 5-40 µM
RAW264.7 [10] = test: Anti-inflammatory activity in LPS-induced mouse RAW264.7 cells assessed as downregulation of iNOS mRNA transcription at 10 to 40 uM pre-incubated with compound for 1 hr followed by LPS induction and measured after 6 hrs by qRT-PCR analysis; assay type: functional, cell-based; conditions: dose 10-40 µM
RAW264.7 [11] = test: Anti-inflammatory activity in LPS-induced mouse RAW264.7 cells assessed as inhibition of NO production; assay type: functional, cell-based

Compound | Activity (RAW264.7 [1]) | also measured
C[C@H]1CCO[C@@H]1[C@](C)(O)/C=C/C1=CC2=CC(=O)[C@](C)(O)[C@@H](O)[C@@H]2CO1 | Non-toxic | –
C[C@H]1CC(=O)O[C@@H]1[C@](C)(O)/C=C/C1=CC2=C(Cl)C(=O)[C@](C)(O)[C@H](O)[C@@H]2CO1 | Non-toxic | –
C[C@H]1CC(=O)O[C@@H]1[C@](C)(O)/C=C/C1=CC2=CC(=O)[C@](C)(O)[C@@H](O)[C@@H]2CO1 | Non-toxic | Activity (RAW264.7 [2]): Dose-dependent-effect; IC50 (RAW264.7 [3]): 16.7 µM; Activity (RAW264.7 [4]): Active; Activity (RAW264.7 [5]): inactive; Activity (RAW264.7 [6]): Active; Activity (RAW264.7 [7]): Dose-dependent-effect; inhibition (RAW264.7 [8]): Dose-dependent-effect; Activity (RAW264.7 [9]): inactive; Activity (RAW264.7 [10]): Active
C[C@H]1CC(=O)O[C@@H]1[C@](C)(O)/C=C/C1=CC2=CC(=O)[C@](C)(O)[C@@H](O)[C@H]2CO1 | Non-toxic | –
C[C@H]1CC(=O)O[C@@H]1[C@](C)(O)/C=C/C1=CC2=CC(=O)[C@](C)(O)[C@@H](O)C2=CO1 | Non-toxic | –
O=c1c(O)c(-c2ccc(O)c(O)c2)oc2cc(O)cc(O)c12 [QUERCETIN] | – | IC50 (RAW264.7 [11]): 15.3 µM
C[C@H]1CCO[C@@H]1[C@@](C)(O)/C=C/C1=CC2=CC(=O)[C@](C)(O)[C@@H](O)[C@]2(O)CO1 | Non-toxic | –
C[C@H]1CC(=O)O[C@@H]1[C@@](C)(O)/C=C/C1=CC2=CC(=O)[C@](C)(O)[C@@H](O)[C@H]2CO1 | Non-toxic | –
C[C@H]1CC(=O)O[C@@H]1[C@@](C)(O)/C=C/C1=CC2=CC(=O)[C@](C)(O)[C@@H](O)C2=CO1 | Non-toxic | –
C[C@H]1CC(=O)O[C@@H]1[C@@](C)(O)/C=C/C1=CC2=CC(=O)[C@](C)(O)[C@@H](O)[C@@H]2CO1 | Non-toxic | –
C[C@H]1CCO[C@@H]1[C@](C)(O)/C=C/C1=CC2=CC(=O)[C@](C)(O)[C@@H](O)[C@]2(O)CO1 | Non-toxic | –
C[C@H]1CCO[C@@H]1[C@@](C)(O)/C=C/C1=CC2=CC(=O)[C@](C)(O)[C@@H](O)[C@@H]2CO1 | Non-toxic | –
C[C@H]1CC(=O)O[C@@H]1[C@@](C)(O)/C=C/C1=CC2=C(Cl)C(=O)[C@](C)(O)[C@H](O)[C@@H]2CO1 | Non-toxic | –
